Source: ChEMBL document CHEMBL1201862, “PubChem BioAssay data set” (2004)
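Growth conditions: 96-well plates. Treatment: test compound, 48 hours, 5 concentrations. Analysis: linear interpolation between bracketing concentrations; unreached endpoints set to highest concentration. GI50 marks 50% less growth.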 Active and inactive are the calls of the source. Cut-off read from the data, not from the text of the source: active = GI50 up to about 1.1 µM and inactive = higher.

Tests used:
Assay in all cases: inhibition of tumour cell growth, NCI panel, 48 h
[1] = system: 786-0
[2] = system: A549
[3] = system: ACHN
[4] = system: BT-549
[5] = system: CAKI-1
[6] = system: CCRF-CEM
[7] = system: COLO 205
[8] = system: DU-145
[9] = system: EKVX
[10] = system: HCC 2998
[11] = system: HCT-116
[12] = system: HCT-15
[13] = system: HL-60
[14] = system: HOP-62
[15] = system: HOP-92
[16] = system: HT-29
[17] = system: IGROV-1
[18] = system: K562
[19] = system: KM12
[20] = system: LOX IMVI
[21] = system: M14
[22] = system: MCF7
[23] = system: MDA-MB-231
[24] = system: MDA-MB-435
[25] = system: MOLT-4
[26] = system: Malme-3M
[27] = system: NCI-H226
[28] = system: NCI-H23
[29] = system: NCI-H460
[30] = system: NCI-H522
[31] = system: NCI/ADR-RES
[32] = system: OVCAR-4
[33] = system: OVCAR-5
[34] = system: OVCAR-8
[35] = system: PC-3
[36] = system: RPMI-8226
[37] = system: SF-268
[38] = system: SF-295
[39] = system: SF-539
[40] = system: SK-MEL-2
[41] = system: SK-MEL-5
[42] = system: SN12C
[43] = system: SNB-19
[44] = system: SNB-75
[45] = system: SR
[46] = system: SW-620
[47] = system: TK-10
[48] = system: U-251
[49] = system: UACC-257
[50] = system: Hs-578T
[51] = system: SK-MEL-28
[52] = system: SK-OV-3
[53] = system: UACC-62

CN(C)CCCNC(=O)c1cc(NC(=O)c2cc(NC(=O)[C@H]3C[C@@H]3C(=O)Nc3cc(C(=O)Nc4cc(C(=O)NCCCN(C)C)n(C)c4)n(C)c3)cn2C)cn1C
GI50 [1]: > 100 µM (inactive)
GI50 [2]: > 100 µM (inactive)
GI50 [3]: > 100 µM (inactive)
GI50 [4]: > 100 µM (inactive)
GI50 [5]: > 100 µM (inactive)
GI50 [6]: > 100 µM (inactive)
GI50 [7]: > 100 µM (inactive)
GI50 [8]: > 100 µM (inactive)
GI50 [9]: > 100 µM (inactive)
GI50 [10]: > 100 µM (inactive)
GI50 [11]: > 100 µM (inactive)
GI50 [12]: > 100 µM
GI50 [13]: > 100 µM (inactive)
GI50 [14]: > 100 µM (inactive)
GI50 [15]: 3.24 µM (inactive)
GI50 [16]: > 100 µM (inactive)
GI50 [17]: > 100 µM (inactive)
GI50 [18]: > 100 µM (inactive)
GI50 [19]: > 100 µM (inactive)
GI50 [20]: > 100 µM (inactive)
GI50 [21]: > 100 µM (inactive)
GI50 [22]: > 100 µM (inactive)
GI50 [23]: > 100 µM (inactive)
GI50 [24]: > 100 µM (inactive)
GI50 [25]: > 100 µM (inactive)
GI50 [26]: > 100 µM (inactive)
GI50 [27]: > 100 µM (inactive)
GI50 [28]: > 100 µM (inactive)
GI50 [29]: > 100 µM (inactive)
GI50 [30]: 65 µM (inactive)
GI50 [31]: > 100 µM (inactive)
GI50 [32]: > 100 µM (inactive)
GI50 [33]: > 100 µM (inactive)
GI50 [34]: > 100 µM (inactive)
GI50 [35]: > 100 µM (inactive)
GI50 [36]: > 100 µM (inactive)
GI50 [37]: > 100 µM (inactive)
GI50 [38]: > 100 µM (inactive)
GI50 [39]: > 100 µM (inactive)
GI50 [40]: > 100 µM (inactive)
GI50 [41]: > 100 µM (inactive)
GI50 [42]: > 100 µM (inactive)
GI50 [43]: > 100 µM (inactive)
GI50 [44]: > 100 µM (inactive)
GI50 [45]: > 100 µM (inactive)
GI50 [46]: > 100 µM (inactive)
GI50 [47]: > 10 µM (inactive)
GI50 [48]: > 100 µM (inactive)
GI50 [49]: > 100 µM (inactive)

COc1cccc(-c2cc(O)c3cc(N)ccc3n2)c1
GI50 [1]: 4.05 µM (inactive)
GI50 [2]: 5.94 µM (inactive)
GI50 [3]: 7.13 µM (inactive)
GI50 [4]: 5.81 µM (inactive)
GI50 [6]: 2.25 µM (inactive)
GI50 [7]: 4.27 µM (inactive)
GI50 [9]: > 100 µM (inactive)
GI50 [10]: 6.55 µM (inactive)
GI50 [12]: 3.47 µM
GI50 [14]: 5.92 µM (inactive)
GI50 [15]: 3.44 µM (inactive)
GI50 [16]: 3.22 µM (inactive)
GI50 [50]: 2.09 µM (inactive)
GI50 [17]: 5.06 µM (inactive)
GI50 [19]: 3.62 µM (inactive)
GI50 [21]: 4.63 µM (inactive)
GI50 [22]: 3.94 µM (inactive)
GI50 [23]: 25.2 µM (inactive)
GI50 [24]: 0.834 µM (active)
GI50 [25]: 3.71 µM (inactive)
GI50 [26]: 2.14 µM (inactive)
GI50 [28]: 9.91 µM (inactive)
GI50 [29]: 3.75 µM (inactive)
GI50 [30]: 2.39 µM (inactive)
GI50 [31]: 2.54 µM (inactive)
GI50 [33]: > 100 µM (inactive)
GI50 [34]: 9.16 µM (inactive)
GI50 [35]: 2.09 µM (inactive)
GI50 [39]: 2.35 µM (inactive)
GI50 [51]: 7.62 µM (inactive)
GI50 [41]: 2.88 µM (inactive)
GI50 [52]: 2.3 µM (inactive)
GI50 [42]: 7.05 µM (inactive)
GI50 [43]: 5.26 µM (inactive)
GI50 [44]: 2.75 µM (inactive)
GI50 [46]: 1.94 µM (inactive)
GI50 [47]: 6.79 µM (inactive)
GI50 [53]: 2.92 µM (inactive)
